This note sets out measurements from patent publication US20210395239A1 (Hoffmann-La Roche Inc., priority 2018, published 2021).

This assay has as its target T1, human TLR8 (Homo sapiens, UniProt Q9NR97).
T1 construct: host or cells: HEK293 (HEK-Blue hTLR8)
T1 sequence (Q9NR97 27-1041): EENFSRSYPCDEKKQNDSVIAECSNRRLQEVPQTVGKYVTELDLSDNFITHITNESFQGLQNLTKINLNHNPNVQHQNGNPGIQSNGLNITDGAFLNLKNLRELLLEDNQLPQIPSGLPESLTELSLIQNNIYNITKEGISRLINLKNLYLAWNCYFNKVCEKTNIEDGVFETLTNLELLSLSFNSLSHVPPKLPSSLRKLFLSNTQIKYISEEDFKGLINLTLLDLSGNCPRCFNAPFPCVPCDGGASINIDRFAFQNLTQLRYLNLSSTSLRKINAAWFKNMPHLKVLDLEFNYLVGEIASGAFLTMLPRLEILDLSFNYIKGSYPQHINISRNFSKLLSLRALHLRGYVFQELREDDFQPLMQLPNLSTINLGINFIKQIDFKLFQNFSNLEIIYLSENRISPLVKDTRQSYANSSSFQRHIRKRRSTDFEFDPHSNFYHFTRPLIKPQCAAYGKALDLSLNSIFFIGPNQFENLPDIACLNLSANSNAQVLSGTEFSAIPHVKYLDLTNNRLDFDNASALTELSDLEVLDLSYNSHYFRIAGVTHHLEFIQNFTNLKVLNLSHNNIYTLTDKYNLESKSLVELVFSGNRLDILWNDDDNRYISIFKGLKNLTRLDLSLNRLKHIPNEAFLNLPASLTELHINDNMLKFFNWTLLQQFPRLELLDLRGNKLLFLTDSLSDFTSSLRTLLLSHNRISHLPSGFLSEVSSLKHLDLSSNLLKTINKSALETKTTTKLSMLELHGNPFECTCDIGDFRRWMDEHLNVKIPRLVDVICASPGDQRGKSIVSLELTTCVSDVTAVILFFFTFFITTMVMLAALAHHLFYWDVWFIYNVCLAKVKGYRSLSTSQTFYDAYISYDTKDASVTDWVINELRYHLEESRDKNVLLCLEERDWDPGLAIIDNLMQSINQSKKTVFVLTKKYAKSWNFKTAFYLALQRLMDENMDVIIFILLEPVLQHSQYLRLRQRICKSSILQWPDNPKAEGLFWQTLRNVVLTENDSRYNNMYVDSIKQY
The assay is described as follows: HEK293-Blue-hTLR-8 cells assay (SEAP reporter, R848 stimulation). It is filed as cell-based. The following applies: HEK293-Blue-hTLR8 cells, R848, 20 hrs; read-out: HEK/hTLR8 IC50. In a few lines:
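Antagonism read as reduced R848-induced SEAP reporter secretion, detected by QUANTI-Blue absorbance at 620–655 nm after 2 h. Reporter cells were exposed to compound dilutions in DMEM/10% FBS, 1% DMSO, for 20 h at 37° C.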
Consider `C[C@@H]1CN(c2ccc(C#N)c3ncccc23)C[C@H](CN2CCN(c3cc(N4CCNCC4)ncn3)CC2)O1` [Example 18, 5-[(2R,6S)-2-methyl-6-[[4-(6-piperazin-1-ylpyrimidin-4-yl)piperazin-1-yl]methyl]morpholin-4-yl]quinoline-8-carbonitrile], for which the IC50 was determined as 0.006 µM.

For the compound `C[C@@H]1CN(c2ccc(C#N)c3ncccc23)C[C@H](CN2CCN(c3cccc(N[C@H]4CNC[C@@H]4F)n3)CC2)O1` [Example 35, 5-[(2S,6R)-2-[[4-[6-[[(3S,4S)-4-fluoropyrrolidin-3-yl]amino]-2-pyridyl]piperazin-1-yl]methyl]-6-methyl-morpholin-4-yl]quinoline-8-carbonitrile], the IC50 stood at 0.033 µM.

Turning to `C[C@@H]1CN(c2ccc(C#N)c3ncccc23)C[C@H](CN2CCN(c3cccc(N4CCC(N)CC4)n3)CC2)O1` [Example 36, 5-[(2S,6R)-2-[[4-[6-(4-amino-1-piperidyl)-2-pyridyl]piperazin-1-yl]methyl]-6-methyl-morpholin-4-yl]quinoline-8-carbonitrile], the IC50 is 0.011 µM.

On to `C[C@@H]1CN(c2ccc(C#N)c3ncccc23)C[C@H](CN2CCN(c3ccc([C@@H]4CNCCO4)cc3)CC2)O1` [Example 19, 5-[(2R,6S)-2-methyl-6-[[4-[4-[(2R)-morpholin-2-yl]phenyl]piperazin-1-yl]methyl]morpholin-4-yl]quinoline-8-carbonitrile], for which the IC50 was 0.012 µM.

In the case of `Cc1cc(N2CCN(C[C@H]3CN(c4ccc(C#N)c5nccnc45)C[C@@H](C)O3)CC2)nc(N2CCNCC2)n1` [Example 64, 8-[(2R,6S)-2-methyl-6-[[4-(6-methyl-2-piperazin-1-yl-pyrimidin-4-yl)piperazin-1-yl]methyl]morpholin-4-yl]quinoxaline-5-carbonitrile], the IC50 was 0.002 µM.

Take `C[C@@H]1CN(c2ccc(C#N)c3ncccc23)C[C@H](CN2CCN(c3nc(N4CCNCC4)ncc3C#N)CC2)O1` [Example 50, 5-[(2S,6R)-2-[[4-(5-cyano-2-piperazin-1-yl-pyrimidin-4-yl)piperazin-1-yl]methyl]-6-methyl-morpholin-4-yl]quinoline-8-carbonitrile]: the IC50 came out at 0.003 µM.

For `C[C@@H]1CN(c2ccc(C#N)n3ncc(F)c23)C[C@H](CN2CCN(c3ccc(N4CC5(CNCCO5)C4)nc3)CC2)O1` [Example 169, 3-fluoro-4-[(2R,6S)-2-methyl-6-[[4-[6-(5-oxa-2,8-diazaspiro[3.5]nonan-2-yl)-3-pyridyl]piperazin-1-yl]methyl]morpholin-4-yl]pyrazolo[1,5-a]pyridine-7-carbonitrile], the IC50 is 0.03 µM.
